Measured values as given in patent US20040058974A1, “Treating fungal infections” (SCHERING CORPORATION, priority 2002, published 2004).
Entries after “also recorded” stand apart in the source; their conditions may differ. Where two headings read alike, the source gives them in different places.

Columns and labels:
[1] = Posaconazole pharmacokinetics in bone marrow transplant (BMT) patients, 200 mg q6h for up to 25 days; type: in vivo, human
Method: The exposures in the fasted healthy volunteers were confirmed in a study of posaconazole pharmacokinetics in bone marrow transplant (BMT) patients.
Upon extrapolation of model parameters to multiple dosing, the population mean AUC(0-24 hr) value following oral administration of 200 mg of posaconazole four times a day, preferably q 6 hr was estimated to be 12.4 mcg·hr/mL, representing an average plasma concentration of 0.5 mcg/mL. These estimates, based on data from healthy fasted volunteers, are in close agreement with pharmacokinetic data obtained from a study of patients undergoing high-dose chemotherapy and a bone marrow transplant who were orally administered posaconazole 200 mg q6 h for up to 25 days. […] These studies combined with other data form the basis for posaconazole dosing regimens in the clinical efficacy trials for posaconazole.

[2] = Open-label 3-way crossover clinical pharmacology study: plasma posaconazole pharmacokinetics in fasted healthy subjects (observed values and one-compartment model); type: in vivo, human; settings: for bioavailability / Tmax / Cmax / Mean Cmin (SD) 48 hours after the initial dose / Increase in bioavailability vs regimen A / Change of estimated AUC(I) relative to regimen A: fasted; for bioavailability: model estimate (SE); for AUC(0-t): read-out: Steady-state AUC(0-24 hr); for Cmax: read-out: Mean Cmax (SD)
Excerpt: Men and women, 18 to 45 years of age were recruited for the clinical pharmacology study. Subjects were required to be of normal body weight (within 15% of ideal body weight) and generally in good health. Inclusion criteria included normal electrocardiogram (ECG) and laboratory test results, along with negative drug and pregnancy screens; nonlactating women of childbearing potential were required to use a barrier method of contraception during the study. Exclusion criteria included substance abuse or significant food or drug allergy, donation of blood or use of an investigational drug during the previous 90 days, use of any prescription or over-the-counter drugs other than acetaminophen in the previous 2 weeks, or use of alcohol during the previous 48 hours. Also excluded were subjects with a positive HIV, hepatitis B, or hepatitis C test, as were subjects with is a clinically significant systemic infection during the previous 4 weeks. Subjects who smoked ≧10 cigarettes daily were also excluded. This was an open-label, 3-way crossover study. Subjects who met the entry criteria were confined to the study center at least 12 hours prior to dosing and 48 hours after each dosing regimen. Subjects were discharged from the study site for a 1-week washout period between each arm of the study. Following an overnight fast, each subject received posaconazole as an oral suspension (40 mg/mL), using one of 3 dosing regimens: a single dose of 800 mg (regimen A); 2 doses of 400 mg given 12 hours apart (regimen B); or 4 doses of 200 mg given 6 hours apart (regimen C). Subjects were randomly assigned using a computer-generated random code to 1 of 6 treatment schedules (ABC, ACB, BAC, BCA, CAB, CBA). The oral posaconazole suspension was manufactured and supplied by Schering-Plough Research Institute, Kenilworth, N.J., USA. After dosing with an oral dosing syringe, the oral cavity was inspected to ensure that the subject had swallowed the suspension. Subjects remained fasted for 24 hours after the initial dose. During the first 14 hours, water was provided ad libitum and subjects received IV 1,400 mL D5W/0.5 normal saline at approximately 100 mL/hr as a calorie and fluid source. For regimen A, B, and C, blood samples were collected in heparin-containing tubes at baseline (0 hr) and at 2, 4, 5, 6, 8, 10, 12, 16, 24, and 48 hours after the first dose. For regimen B, blood samples were additionally collected at 14, 17, 18, 20, and 22 hours after the first dose. For regimen C, additional blood samples were collected at 11, 14, 17, 18, 20, 22, 23, 26, 28, and 36 hours after the first dose. Each sample was centrifuged within 15 minutes after collection for 10 minutes at 4° C. and 1,500 g. The resultant plasma was frozen (−20° C.) until assayed. Plasma posaconazole concentrations were quantified using a validated high-performance liquid chromatographic (HPLC) assay with a lower limit of quantitation (LOQ) of 5 ng/mL and a linear range of 5.0 to 5000 ng/mL. The observed values were the maximum plasma concentration (Cmax), time of maximum plasma concentration (Tmax), and the trough plasma concentration at 48 hours after the initial dose of posaconazole (Cmin). Based on previous experience in modeling concentration-time posaconazole data and goodness of fit criteria, a one-compartment oral model with a first-order rate of absorption and first-order rate of elimination was used. The intra-subject error was assumed to be additive, defined as, where Ci,j(t) and Gi,j(t) were the measured and predicted concentrations, respectively, for the j^th subject at time t under the i^th regimen. The predicted concentrations Gi,j(t) following treatments B and C were calculated using the principle of superpositioning, with a lag time equal to the dosing interval (B: 12 hours; C: 6 hours). The error term εi,j(t) was assumed to be N(0, σ^2 ε). Differences in exposure following the three dosage regimens were explored by allowing the bioavailability fraction (F) to differ between regimens. […]

[3] = given with food, rising single dose; cited from earlier work
[4] = single daily dose; cited from earlier work
[5] = system: Candida species (including albicans, glabrata, and tropicalis), as well as other opportunistic fungi; settings: in vitro and in vivo studies; cited from earlier work
[6] = Safety and tolerability in the 3-way crossover study (adverse events, vital signs, ECGs, laboratory tests); type: in vivo, human
Method: Physical examinations, vital signs, ECGs, and clinical laboratory tests were conducted at screening and at the end of the study (48 hours after the final dosing regimen). Treatment-emergent adverse events were recorded throughout the study. In addition, vital signs were evaluated prior to drug administration and at 24 and 48 hours after the first dose of each regimen.

[7] = 200 mg four times a day, model extrapolated to multiple dosing, healthy fasted volunteers

CC[C@@H]([C@H](C)O)n1ncn(-c2ccc(N3CCN(c4ccc(OC[C@@H]5CO[C@@](Cn6cncn6)(c6ccc(F)cc6F)C5)cc4)CC3)cc2)c1=O [posaconazole]
Average steady-state plasma concentration ([1]; 200 mg q6h for up to 25 days, high-dose chemotherapy and bone marrow transplant patients): 0.428 µg/mL
AUC ([1]; human, plasma, oral, 200 mg QID, BMT patients, read-out: AUC (exposure)): ~11000 ng·h/mL
AUC(0-t) ([1]; human, plasma, oral, 200 mg q6h for up to 25 days, high-dose chemotherapy and bone marrow transplant patients, read-out: AUC(0-24 hr) at steady state): 10600 ng·h/mL
Average posaconazole plasma concentration ([2]; 200 mg QID oral): greater than 500 ng/mL
Average plasma concentration [2, 7]: 0.5 µg/mL
Population mean AUC(0-24 hr) [2, 7]: 12400 ng·h/mL
Average posaconazole plasma concentration ([2]; 400 mg BID oral): greater than 300 ng/mL
Absorption constant, Ka, estimate ([2]; Table 1, one-compartment model): 0.197 h⁻¹
Elimination constant, Ke, estimate ([2]; Table 1, one-compartment model): 0.045 h⁻¹
bioavailability ([2]; both sexes, human, plasma, oral, 200 mg QID vs 800 mg QD, read-out: Bioavailability fraction F3, regimen C relative to regimen A): 320 ± 70%
Tmax ([2]; both sexes, human, plasma, oral, 200 mg, regimen C: 200 mg every 6 h, read-out: Mean Tmax (SD) after the initial dose): 24.2 h
Tmax ([2]; both sexes, human, plasma, oral, 200 mg, regimen C: 200 mg every 6 h, read-out: Tmax after the final dose): 6.2 h
bioavailability ([2]; both sexes, human, plasma, oral, 400 mg BID vs 800 mg QD, read-out: Bioavailability fraction F2, regimen B relative to regimen A): 198 ± 35%
Tmax ([2]; both sexes, human, plasma, oral, 400 mg, regimen B: 400 mg every 12 h, read-out: Mean Tmax (SD) after the initial dose): 16.6 h
Tmax ([2]; both sexes, human, plasma, oral, 400 mg, regimen B: 400 mg every 12 h, read-out: Tmax after the final dose): 4.6 h
Tmax ([2]; both sexes, human, plasma, oral, 800 mg, regimen A: 800 mg single dose, read-out: Mean Tmax (SD) after the initial dose): 7.8 h
Tmax ([2]; both sexes, human, plasma, oral, 800 mg, regimen A: 800 mg single dose, read-out: Tmax after the final dose): 7.8 h
half-life ([2]; both sexes, human, plasma, oral, from absorption rate constant, fasting conditions, read-out: Estimated absorption half-life (converted)): 3.5 h
half-life ([2]; both sexes, human, plasma, oral, from elimination rate constant, read-out: Estimated terminal elimination half-life (converted)): 15 h
AUC ([2]; both sexes, human, plasma, oral, 200 mg QID, fasted healthy subjects, read-out: AUC (exposure)): ~12000 ng·h/mL
Vd/F ([2]; both sexes, human, plasma, oral, one-compartment model, read-out: V/F1 (volume of distribution) estimate): 4580 L
AUC(0-t) ([2]; both sexes, human, plasma, oral, regimen A 800 mg QD, model extrapolated to multiple dosing): 3900 ng·h/mL
AUC(0-t) ([2]; both sexes, human, plasma, oral, regimen B 400 mg BID, model extrapolated to multiple dosing): 7700 ng·h/mL
Cmax ([2]; both sexes, human, plasma, oral, regimen B: 400 mg every 12 h (2 doses)): 225 ng/mL
AUC(0-t) ([2]; both sexes, human, plasma, oral, regimen C 200 mg QID, model extrapolated to multiple dosing): 12400 ng·h/mL
Cmax ([2]; both sexes, human, plasma, oral, regimen C: 200 mg every 6 h (4 doses)): 405 ng/mL
Cmax ([2]; both sexes, human, plasma, regimen A: 800 mg single oral dose): 137 ng/mL
Dose at which oral absorption is saturable ([2]; fasted subjects, suggested by concentration-time curves): 200 mg
Elimination rate constant ([2]; one-compartment model, all regimens): 0.045 h⁻¹
Absorption rate constant ([2]; one-compartment model, fasting conditions, all regimens): 0.197 h⁻¹
F1 (Regimen A) bioavailability fraction ([2]; reference, fixed equal to 1, 800 mg single dose): 1.0
Estimated steady-state average concentration ([2]; regimen A 800 mg QD, model extrapolated to multiple dosing): 162 ng/mL
Mean Cmin (SD) 48 hours after the initial dose ([2]; regimen A: 800 mg single dose): 50 (+/−26) ng/mL
Increase in bioavailability vs regimen A ([2]; regimen B 400 mg BID vs 800 mg single dose): 98%
Estimated steady-state average concentration ([2]; regimen B 400 mg BID, model extrapolated to multiple dosing): 320 ng/mL
Change of estimated AUC(I) relative to regimen A ([2]; regimen B 400 mg every 12 h): doubled
Mean Cmin (SD) 48 hours after the initial dose ([2]; regimen B: 400 mg every 12 h): 96 (+/−46) ng/mL
Increase in bioavailability vs regimen A ([2]; regimen C 200 mg QID vs 800 mg single dose): 220%
Estimated steady-state average concentration ([2]; regimen C 200 mg QID, model extrapolated to multiple dosing): 517 ng/mL
Change of estimated AUC(I) relative to regimen A ([2]; regimen C 200 mg every 6 h): tripled
Mean Cmin (SD) 48 hours after the initial dose ([2]; regimen C: 200 mg every 6 h): 189 (+/−135) ng/mL
Doses at which absorption saturated [3]: above 800 mg
Increase in oral bioavailability with a high fat meal compared to the fasted state [4]: approximately 4 fold
Antifungal activity [5]: good activity
Subjects reporting at least 1 adverse event ([6]; 18 subjects, all regimens): 33%
Changes in vital signs, physical examinations, laboratory values, ECGs ([6]; all regimens): no clinically significant changes; also recorded: unchanged relative to baseline
Intensity of adverse events ([6]; all regimens): mild in intensity
Subjects reporting chest pain ([6]; regimen C): 11%
Subjects reporting headache ([6]; regimens A and B): 11%
Safety and tolerability ([6]; total daily dose 800 mg, regardless of dosing regimen): safe and well tolerated
